pIC50: −log10 of the molar value. Calls of active or inactive are those of the source. No cut-off for these calls is given here.
Experiments:
MDA-MB-231 [1] = assay: Induction of apoptosis in human MDA-MB-231 cells assessed as upregulation of cleaved caspase 7 level at 1 to 25 uM incubated for 48 hrs by western blot analysis; format: functional, cell-based; conditions: dose 1-25 µM
[2] = Cytotoxicity against human MCF-10A cells assessed as reduction in cell viability incubated for 72 hrs by MTT assay; format: toxicity, cell-based
MDA-MB-231 [3] = assay: Induction of cell cycle arrest in human MDA-MB-231 cells assessed as accumulation of cells at S phase at 10 uM incubated for 48 hrs by PI staining based flow cytometry (reference value: 12.56 to 14.76%); format: functional
MDA-MB-231 [4] = assay: Induction of apoptosis in human MDA-MB-231 cells assessed as late apoptotic cells at 10 uM incubated for 48 hrs by AnnexinV-FITC/PI staining based flow cytometry (reference value: 3.77 to 3.84%); format: functional
MDA-MB-231 [5] = assay: Induction of apoptosis in human MDA-MB-231 cells assessed as late apoptotic cells at 25 uM incubated for 48 hrs by AnnexinV-FITC/PI staining based flow cytometry (reference value: 3.77 to 3.84%); format: functional
MDA-MB-231 [6] = assay: Induction of apoptosis in human MDA-MB-231 cells assessed as upregulation of cleaved PARP level at 1 to 25 uM incubated for 48 hrs by western blot analysis; format: functional, cell-based; conditions: dose 1-25 µM
MDA-MB-231 [7] = assay: Induction of apoptosis in human MDA-MB-231 cells assessed as necrotic cells at 2.5 uM incubated for 48 hrs by AnnexinV-FITC/PI staining based flow cytometry (reference value: 1.79 to 2.53%); format: functional
MDA-MB-231 [8] = assay: Induction of cell cycle arrest in human MDA-MB-231 cells assessed as accumulation of cells at S phase at 2.5 uM incubated for 48 hrs by PI staining based flow cytometry (reference value: 12.56 to 14.76%); format: functional
MDA-MB-468 = assay: Antiproliferative activity against human MDA-MB-468 cells assessed as reduction in cell growth incubated for 72 hrs by MTT assay; conditions: MDA-MB-468, 72 h
MDA-MB-231 [9] = assay: Induction of cell cycle arrest in human MDA-MB-231 cells assessed as accumulation of cells at G0/G1 phase at 10 uM incubated for 48 hrs by PI staining based flow cytometry (reference value: 55.36 to 55.82%); format: functional
MDA-MB-231 [10] = assay: Induction of cell cycle arrest in human MDA-MB-231 cells assessed as accumulation of cells at S phase at 1 uM incubated for 48 hrs by PI staining based flow cytometry (reference value: 12.56 to 14.76%); format: functional
MDA-MB-231 [11] = assay: Induction of apoptosis in human MDA-MB-231 cells assessed as viable cells at 10 uM incubated for 48 hrs by AnnexinV-FITC/PI staining based flow cytometry (reference value: 91.22 to 92.84%); format: functional; conditions: read-out: Activity
MDA-MB-231 [12] = assay: Induction of apoptosis in human MDA-MB-231 cells assessed as late apoptotic cells at 2.5 uM incubated for 48 hrs by AnnexinV-FITC/PI staining based flow cytometry (reference value: 3.77 to 3.84%); format: functional
MDA-MB-231 [13] = assay: Induction of apoptosis in human MDA-MB-231 cells assessed as necrotic cells at 10 uM incubated for 48 hrs by AnnexinV-FITC/PI staining based flow cytometry (reference value: 1.79 to 2.53%); format: functional
MDA-MB-231 [14] = assay: Induction of cell cycle arrest in human MDA-MB-231 cells assessed as accumulation of cells at G2/M phase at 1 uM incubated for 48 hrs by PI staining based flow cytometry (reference value: 29.42 to 32.08%); format: functional
MDA-MB-453 = assay: Antiproliferative activity against human MDA-MB-453 cells assessed as reduction in cell growth incubated for 72 hrs by MTT assay; conditions: MDA-MB-453, 72 h
MDA-MB-231 [15] = assay: Induction of apoptosis in human MDA-MB-231 cells assessed as necrotic cells at 5 uM incubated for 48 hrs by AnnexinV-FITC/PI staining based flow cytometry (reference value: 1.79 to 2.53%); format: functional
MDA-MB-231 [16] = assay: Induction of apoptosis in human MDA-MB-231 cells assessed as late apoptotic cells at 5 uM incubated for 48 hrs by AnnexinV-FITC/PI staining based flow cytometry (reference value: 3.77 to 3.84%); format: functional
MDA-MB-231 [17] = assay: Induction of apoptosis in human MDA-MB-231 cells assessed as early apoptotic cells at 5 uM incubated for 48 hrs by AnnexinV-FITC/PI staining based flow cytometry (reference value: 1.6 to 2.41%); format: functional
MDA-MB-231 [18] = assay: Inhibition of colony formation in human MDA-MB-231 cells at 1 to 25 uM incubated for 7 days by crystal violet staining based analysis; format: functional, cell-based; conditions: dose 1-25 µM, time 7.0 day
MDA-MB-231 [19] = assay: Induction of cell cycle arrest in human MDA-MB-231 cells assessed as accumulation of cells at G0/G1 phase at 2.5 uM incubated for 48 hrs by PI staining based flow cytometry (reference value: 55.36 to 55.82%); format: functional
MDA-MB-231 [20] = assay: Induction of apoptosis in human MDA-MB-231 cells assessed as early apoptotic cells at 10 uM incubated for 48 hrs by AnnexinV-FITC/PI staining based flow cytometry (reference value: 1.6 to 2.41%); format: functional
MDA-MB-231 [21] = assay: Induction of cell cycle arrest in human MDA-MB-231 cells assessed as accumulation of cells at G0/G1 phase at 25 uM incubated for 48 hrs by PI staining based flow cytometry (reference value: 55.36 to 55.82%); format: functional
[22] = biological target: Hepatocyte growth factor receptor (Homo sapiens, UniProt P08581); assay: Inhibition of c-Met in human MDA-MB-231 cells assessed as inhibition of Akt phosphorylation at Ser473 residue incubated for 48 hrs by western blot analysis; format: cell-based; conditions: dose 1-25 µM
Hepatocyte growth factor receptor, sequence (P08581 whole entry): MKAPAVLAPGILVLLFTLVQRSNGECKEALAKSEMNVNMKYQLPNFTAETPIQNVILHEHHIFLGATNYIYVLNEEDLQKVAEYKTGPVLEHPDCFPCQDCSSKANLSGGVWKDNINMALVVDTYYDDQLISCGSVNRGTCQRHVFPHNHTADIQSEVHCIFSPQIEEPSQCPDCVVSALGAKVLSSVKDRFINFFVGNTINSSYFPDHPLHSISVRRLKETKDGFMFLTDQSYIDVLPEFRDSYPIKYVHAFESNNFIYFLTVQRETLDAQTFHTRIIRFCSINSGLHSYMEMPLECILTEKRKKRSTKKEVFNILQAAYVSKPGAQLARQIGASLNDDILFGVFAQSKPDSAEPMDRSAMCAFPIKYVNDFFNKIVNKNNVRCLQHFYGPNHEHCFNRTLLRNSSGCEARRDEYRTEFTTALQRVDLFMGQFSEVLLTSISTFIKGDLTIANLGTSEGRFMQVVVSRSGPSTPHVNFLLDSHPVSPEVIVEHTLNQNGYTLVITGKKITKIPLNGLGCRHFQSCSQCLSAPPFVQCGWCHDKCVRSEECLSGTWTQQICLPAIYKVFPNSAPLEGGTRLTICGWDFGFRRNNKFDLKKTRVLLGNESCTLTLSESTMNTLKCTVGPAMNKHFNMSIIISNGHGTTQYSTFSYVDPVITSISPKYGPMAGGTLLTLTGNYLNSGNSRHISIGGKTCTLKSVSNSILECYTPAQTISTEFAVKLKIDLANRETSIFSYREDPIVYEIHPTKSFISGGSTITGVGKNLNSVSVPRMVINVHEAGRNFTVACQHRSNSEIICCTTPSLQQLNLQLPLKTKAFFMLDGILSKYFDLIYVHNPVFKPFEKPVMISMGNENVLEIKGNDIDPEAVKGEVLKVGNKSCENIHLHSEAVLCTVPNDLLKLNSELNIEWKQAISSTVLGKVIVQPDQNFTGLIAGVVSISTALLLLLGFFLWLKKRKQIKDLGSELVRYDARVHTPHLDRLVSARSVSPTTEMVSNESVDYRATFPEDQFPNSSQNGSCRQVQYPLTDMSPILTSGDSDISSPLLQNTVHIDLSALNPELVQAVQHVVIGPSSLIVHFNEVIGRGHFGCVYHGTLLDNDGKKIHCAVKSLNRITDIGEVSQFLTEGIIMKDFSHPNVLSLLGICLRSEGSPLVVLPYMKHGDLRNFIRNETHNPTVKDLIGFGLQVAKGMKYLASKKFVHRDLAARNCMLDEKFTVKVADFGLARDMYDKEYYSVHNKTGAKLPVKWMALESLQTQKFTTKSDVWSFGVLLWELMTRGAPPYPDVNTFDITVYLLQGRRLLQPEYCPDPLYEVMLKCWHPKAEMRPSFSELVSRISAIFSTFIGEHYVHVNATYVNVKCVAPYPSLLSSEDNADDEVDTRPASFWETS

MDA-MB-231 [23] = assay: Induction of cell cycle arrest in human MDA-MB-231 cells assessed as accumulation of cells at G2/M phase at 10 uM incubated for 48 hrs by PI staining based flow cytometry (reference value: 29.42 to 32.08%); format: functional
MDA-MB-231 [24] = assay: Induction of apoptosis in human MDA-MB-231 cells assessed as early apoptotic cells at 2.5 uM incubated for 48 hrs by AnnexinV-FITC/PI staining based flow cytometry (reference value: 1.6 to 2.41%); format: functional
MDA-MB-231 [25] = assay: Induction of cell cycle arrest in human MDA-MB-231 cells assessed as accumulation of cells at S phase at 25 uM incubated for 48 hrs by PI staining based flow cytometry (reference value: 12.56 to 14.76%); format: functional
MDA-MB-231 [26] = assay: Induction of apoptosis in human MDA-MB-231 cells assessed as early apoptotic cells at 25 uM incubated for 48 hrs by AnnexinV-FITC/PI staining based flow cytometry (reference value: 1.6 to 2.41%); format: functional
MDA-MB-231 [27] = assay: Induction of cell cycle arrest in human MDA-MB-231 cells assessed as accumulation of cells at G2/M phase at 2.5 uM incubated for 48 hrs by PI staining based flow cytometry (reference value: 29.42 to 32.08%); format: functional
MDA-MB-231 [28] = assay: Induction of apoptosis in human MDA-MB-231 cells assessed as viable cells at 5 uM incubated for 48 hrs by AnnexinV-FITC/PI staining based flow cytometry (reference value: 91.22 to 92.84%); format: functional; conditions: read-out: Activity

In the case of `CC(c1ccc2ncccc2c1)n1nnc2ncc(N3CCN(Cc4ccc(/C=C/C(=O)Nc5ccccc5N)cc4)CC3)nc21` (stereo not given), the Activity (MDA-MB-231 [1]) was “Active”, the IC50 at 72 h [2] was > 25 µM and the Activity (MDA-MB-231 [3]) was 8.21%. The Activity (MDA-MB-231 [4]) was 10.69%, the Activity (MDA-MB-231 [5]) was 12.3% and the Activity (MDA-MB-231 [6]) was “Active”. It also gave an Activity (MDA-MB-231 [7]) of 3.83%, an Activity (MDA-MB-231 [8]) of 9.53% and a pIC50 (MDA-MB-468) of 5.90. It also gave an Activity (MDA-MB-231 [9]) of 75.71%, an Activity (MDA-MB-231 [10]) of 7.57% and a viability at 10 µM (MDA-MB-231 [11]) of 83.1%. For the same molecule, the Activity (MDA-MB-231 [12]) was 6.97%, the Activity (MDA-MB-231 [13]) was 1.67% and the Activity (MDA-MB-231 [14]) was 27.08%. The pIC50 (MDA-MB-453) was 5.26, the Activity (MDA-MB-231 [15]) was 4.59% and the Activity (MDA-MB-231 [16]) was 6.84%. The Activity (MDA-MB-231 [17]) was 3.1%, the inhibition (MDA-MB-231 [18]) was “Dose-Dependent Effect” and the Activity (MDA-MB-231 [19]) was 67.14%. The Activity (MDA-MB-231 [20]) was 4.56%, the Activity (MDA-MB-231 [21]) was 83.37% and the inhibition [22] was “Dose-Dependent Effect”. It also gave an Activity (MDA-MB-231 [23]) of 16.08%, an Activity (MDA-MB-231 [24]) of 4.92% and an Activity (MDA-MB-231 [25]) of 6.06%. It also gave an Activity (MDA-MB-231 [26]) of 3.51%, an Activity (MDA-MB-231 [27]) of 23.33% and a viability at 5 µM (MDA-MB-231 [28]) of 85.5%.

Source: ChEMBL document CHEMBL6127065, “Design and Synthesis of c-Met and HDAC Dual Inhibitors for the Treatment of Breast Cancer” (ACS Med Chem Lett, 2024)
